# Laboratory results published in patent US7459414B2, “Herbicides” (Syngenta Crop Protection, Inc., priority 2002, dated 2008).
# Key:
# Assay type in all cases: in vivo
# Avena (Ave) [1] = assay: Example B4 post-emergence herbicidal action, MERGE oil additive 0.7% (Table B4); design: key: 1=total damage; 9=no action; details: 500 g of active substance per hectare; applied at 3- to 6-leaf stage; MERGE oil additive 0.7% by weight of the spray mixture; evaluation 3 weeks after application; scale of nine ratings
# Protocol: (§1) Monocotyledonous and dicotyledonous weeds are grown in standard soil in plastics pots under greenhouse conditions. The test substances are applied to the test plants at the 3- to 6-leaf stage. The test substances are applied at a rate of application of 500 g of active substance per hectare in the form of an aqueous suspension (prepared from a 25% wettable powder (Example F3, b)) or in the form of an emulsion (prepared from a 25% emulsifiable concentrate (Example F1, c)) (500 liters of water/ha). The evaluation is carried out 3 weeks after application, using a scale of nine ratings (1=total damage, 9=no action). Ratings of from 1 to 4 (especially from 1 to 3) indicate good to very good herbicidal action. Herbicidal Action After the Emergence of the Plants (Post-emergence Action) of Compounds of the Present Invention (for Description See Example B2) Test plants: Avena (Ave), Lolium (Lol), Setaria (Set).
# Lolium (Lol) [2] = assay: as above; design: key: 1=total damage; 9=no action; details: 500 g of active substance per hectare; applied at 3- to 6-leaf stage; MERGE oil additive 0.7% by weight of the spray mixture; evaluation 3 weeks after application; scale of nine ratings
# Protocol: as §1
# Setaria (Set) [3] = assay: as above; design: key: 1=total damage; 9=no action; details: 500 g of active substance per hectare; applied at 3- to 6-leaf stage; MERGE oil additive 0.7% by weight of the spray mixture; evaluation 3 weeks after application; scale of nine ratings
# Protocol: as §1
# Alopecurus (Alo) [4] = assay: Example B1 pre-emergence herbicidal action (comparison test); design: key: 1=total damage; 9=no action; details: 500 g of active ingredient/ha; 3 weeks after application; scale of nine ratings, 1 to 4 = good to very good action
# Protocol: (§2) Monocotyledonous and dicotyledonous weeds are sown in plastics pots in standard soil. Immediately after sowing, the test substances are applied in the form of an aqueous suspension (prepared from a 25% wettable powder (Example F3, b)) or in the form of an emulsion (prepared from a 25% emulsifiable concentrate (Example F1, c)) (500 liters of water/ha). The rate of application is 500 g of active substance/ha. The test plants are then grown in the greenhouse under optimum conditions. The evaluation is carried out 3 weeks after application, using a scale of nine ratings (1=total damage, 9=no action). Ratings of from 1 to 4 (especially from 1 to 3) indicate good to very good herbicidal action. Test plants: Alopecurus (Alo), Avena (Ave), Lolium (Lol), Setaria (Set), Panicum (Pan), Sorghum (Sor), Digitaria (Dig), Echinochloa (Ech) and Brachiaria (Bra).
# Avena (Ave) [5] = assay: as above; design: key: 1=total damage; 9=no action; details: 500 g of active ingredient/ha; 3 weeks after application; scale of nine ratings, 1 to 4 = good to very good action
# Protocol: as §2
# Brachiaria (Bra) [6] = assay: as above; design: key: 1=total damage; 9=no action; details: 500 g of active ingredient/ha; 3 weeks after application; scale of nine ratings, 1 to 4 = good to very good action
# Protocol: as §2
# Echinochloa (Ech) = assay: as above; design: key: 1=total damage; 9=no action; details: 500 g of active ingredient/ha; 3 weeks after application; scale of nine ratings, 1 to 4 = good to very good action
# Protocol: as §2
# Lolium (Lol) [7] = assay: as above; design: key: 1=total damage; 9=no action; details: 500 g of active ingredient/ha; 3 weeks after application; scale of nine ratings, 1 to 4 = good to very good action
# Protocol: as §2
# Panicum (Pan) [8] = assay: as above; design: key: 1=total damage; 9=no action; details: 500 g of active ingredient/ha; 3 weeks after application; scale of nine ratings, 1 to 4 = good to very good action
# Protocol: as §2
# Setaria (Set) [9] = assay: as above; design: key: 1=total damage; 9=no action; details: 500 g of active ingredient/ha; 3 weeks after application; scale of nine ratings, 1 to 4 = good to very good action
# Protocol: as §2
# Sorghum (Sor) [10] = assay: as above; design: key: 1=total damage; 9=no action; details: 500 g of active ingredient/ha; 3 weeks after application; scale of nine ratings, 1 to 4 = good to very good action
# Protocol: as §2
# Digitaria (Dig) [11] = assay: as above; details: 500 g of active ingredient/ha; 3 weeks after application; scale of nine ratings, 1 to 4 = good to very good action
# Protocol: as §2
# Alopecurus (Alo) [12] = assay: Example B2 post-emergence herbicidal action (comparison test); design: key: 1=total damage; 9=no action; details: 250 g of active ingredient/ha; 3- to 6-leaf stage; 3 weeks after application; scale of nine ratings, 1 to 4 = good to very good action
# Protocol: (§3) Monocotyledonous and dicotyledonous weeds are grown in standard soil in plastics pots under greenhouse conditions. The test substances are applied to the test plants at the 3- to 6-leaf stage. […] suspension (prepared from a 25% wettable powder (Example F3, b)) or in the form of an emulsion (prepared from a 25% emulsifiable concentrate (Example F1, c)) (500 liters of water/ha). The evaluation is carried out 3 weeks after application, using a scale of nine ratings (1=total damage, 9=no action). Ratings of from 1 to 4 (especially from 1 to 3) indicate good to very good herbicidal action. Test plants: Alopecurus (Alo), Avena (Ave), Lolium (Lol), Setaria (Set), Panicum (Pan), Sorghum (Sor), Digitaria (Dig), Echinocloa (Ech) and Brachiaria (Bra).
# Avena (Ave) [13] = assay: as above; design: key: 1=total damage; 9=no action; details: 250 g of active ingredient/ha; 3- to 6-leaf stage; 3 weeks after application; scale of nine ratings, 1 to 4 = good to very good action
# Protocol: as §3
# Brachiaria (Bra) [14] = assay: as above; design: key: 1=total damage; 9=no action; details: 250 g of active ingredient/ha; 3- to 6-leaf stage; 3 weeks after application; scale of nine ratings, 1 to 4 = good to very good action
# Protocol: as §3
# Echinocloa (Ech) = assay: as above; design: key: 1=total damage; 9=no action; details: 250 g of active ingredient/ha; 3- to 6-leaf stage; 3 weeks after application; scale of nine ratings, 1 to 4 = good to very good action
# Protocol: as §3
# Lolium (Lol) [15] = assay: as above; design: key: 1=total damage; 9=no action; details: 250 g of active ingredient/ha; 3- to 6-leaf stage; 3 weeks after application; scale of nine ratings, 1 to 4 = good to very good action
# Protocol: as §3
# Panicum (Pan) [16] = assay: as above; design: key: 1=total damage; 9=no action; details: 250 g of active ingredient/ha; 3- to 6-leaf stage; 3 weeks after application; scale of nine ratings, 1 to 4 = good to very good action
# Protocol: as §3
# Setaria (Set) [17] = assay: as above; design: key: 1=total damage; 9=no action; details: 250 g of active ingredient/ha; 3- to 6-leaf stage; 3 weeks after application; scale of nine ratings, 1 to 4 = good to very good action
# Protocol: as §3
# Sorghum (Sor) [18] = assay: as above; design: key: 1=total damage; 9=no action; details: 250 g of active ingredient/ha; 3- to 6-leaf stage; 3 weeks after application; scale of nine ratings, 1 to 4 = good to very good action
# Protocol: as §3
# Digitaria (Dig) [19] = assay: as above; details: 250 g of active ingredient/ha; 3- to 6-leaf stage; 3 weeks after application; scale of nine ratings, 1 to 4 = good to very good action
# Protocol: as §3
# Avena (Ave) [20] = assay: Example B3 pre-emergence herbicidal action, MERGE oil additive 0.7% (Table B3); design: key: 1=total damage; 9=no action; details: 500 g of active substance/ha; MERGE oil additive 0.7% by weight of the spray mixture; evaluation 3 weeks after application; scale of nine ratings
# Protocol: (§4) Monocotyledonous and dicotyledonous weeds are sown in standard soil in plastics pots. Immediately after sowing, the test substances are applied in the form of an aqueous suspension (prepared from a 25% wettable powder (Example F3, b)) or in the form of an emulsion (prepared from a 25% emulsifiable concentrate (Example F1, c)) (500 liters of water/ha). The rate of application is 500 g of active substance/ha. The test plants are then grown in the greenhouse under optimum conditions. The evaluation is carried out 3 weeks after application, sing a scale of nine ratings (1=total damage, 9=no action). Ratings of from 1 to 4 (especially from 1 to 3) indicate good to very good herbicidal action. Test plants: Avena (Ave), Lolium (Lol), Setaria (Set).
# Lolium (Lol) [21] = assay: as above; design: key: 1=total damage; 9=no action; details: 500 g of active substance/ha; MERGE oil additive 0.7% by weight of the spray mixture; evaluation 3 weeks after application; scale of nine ratings
# Protocol: as §4
# Setaria (Set) [22] = assay: as above; design: key: 1=total damage; 9=no action; details: 500 g of active substance/ha; MERGE oil additive 0.7% by weight of the spray mixture; evaluation 3 weeks after application; scale of nine ratings
# Protocol: as §4
smiles,measurement,setting,value
CCc1cc(C)cc(CC)c1-c1c(O)n2n(c1=O)CC(OCC(=O)OC)CC2 (stereo not drawn) [1.23],"Post-emergence action, rating, Ave",Avena (Ave) [1],1
same,"Post-emergence action, rating, Lol",Lolium (Lol) [2],1
same,"Post-emergence action, rating, Set",Setaria (Set) [3],1
CCc1cc(C)cc(CC)c1-c1c(O)n2n(c1=O)CC(OCCOC)CC2 (stereo not drawn) [1.15],"Post-emergence action, rating, Ave",Avena (Ave) [1],1
same,"Post-emergence action, rating, Lol",Lolium (Lol) [2],2
same,"Post-emergence action, rating, Set",Setaria (Set) [3],1
CCc1cc(C)cc(CC)c1-c1c(OC(=O)C(C)(C)C)n2n(c1=O)CC(OC)C(OC)C2 (stereo not drawn) [1.08],"Post-emergence action, rating, Ave",Avena (Ave) [1],1
same,"Post-emergence action, rating, Lol",Lolium (Lol) [2],1
same,"Post-emergence action, rating, Set",Setaria (Set) [3],1
CCc1cc(C)cc(CC)c1-c1c(O)n2n(c1=O)CC1OC3(CCCCC3)OC1C2 (stereo not drawn) [1.27],"Post-emergence action, rating, Ave",Avena (Ave) [1],1
same,"Post-emergence action, rating, Lol",Lolium (Lol) [2],1
same,"Post-emergence action, rating, Set",Setaria (Set) [3],2
CCc1cc(C)cc(CC)c1-c1c(O)n2n(c1=O)CC(OC(C)C)CC2 (stereo not drawn) [1.14],"Post-emergence action, rating, Ave",Avena (Ave) [1],1
same,"Post-emergence action, rating, Lol",Lolium (Lol) [2],2
same,"Post-emergence action, rating, Set",Setaria (Set) [3],2
CCc1cc(C)cc(CC)c1-c1c(OC(=O)C(C)(C)C)n2n(c1=O)CCCC2 [1.02],"Pre-emergence action rating, Alo",Alopecurus (Alo) [4],1
same,"Pre-emergence action, rating, Ave",Avena (Ave) [5],1
same,"Pre-emergence action rating, Bra",Brachiaria (Bra) [6],1
same,"Pre-emergence action rating, Ech",Echinochloa (Ech),1
same,"Pre-emergence action, rating, Lol",Lolium (Lol) [7],1
same,"Pre-emergence action rating, Pan",Panicum (Pan) [8],1
same,"Pre-emergence action, rating, Set",Setaria (Set) [9],1
same,"Pre-emergence action rating, Sor",Sorghum (Sor) [10],1
same,"Pre-emergence action rating, Dig",Digitaria (Dig) [11],4
same,"Post-emergence action rating, Alo",Alopecurus (Alo) [12],1
same,"Post-emergence action, rating, Ave",Avena (Ave) [13],1
same,"Post-emergence action rating, Bra",Brachiaria (Bra) [14],1
same,"Post-emergence action rating, Ech",Echinocloa (Ech),1
same,"Post-emergence action, rating, Lol",Lolium (Lol) [15],1
same,"Post-emergence action rating, Pan",Panicum (Pan) [16],1
same,"Post-emergence action, rating, Set",Setaria (Set) [17],1
same,"Post-emergence action rating, Sor",Sorghum (Sor) [18],1
same,"Post-emergence action rating, Dig",Digitaria (Dig) [19],2
same,"Pre-emergence action, rating, Ave",Avena (Ave) [20],1
same,"Pre-emergence action, rating, Lol",Lolium (Lol) [21],1
same,"Pre-emergence action, rating, Set",Setaria (Set) [22],1
same,"Post-emergence action, rating, Ave",Avena (Ave) [1],1
same,"Post-emergence action, rating, Lol",Lolium (Lol) [2],1
same,"Post-emergence action, rating, Set",Setaria (Set) [3],1
CCc1cc(C)cc(CC)c1-c1c(OC(=O)C(C)(C)C)n2n(c1=O)CC(O)C(O)C2 (stereo not drawn) [1.40],"Post-emergence action, rating, Ave",Avena (Ave) [1],1
same,"Post-emergence action, rating, Lol",Lolium (Lol) [2],1
same,"Post-emergence action, rating, Set",Setaria (Set) [3],2
CCc1cc(C)cc(CC)c1-c1c(O)n2n(c1=O)CC(OCC(=O)O)CC2 (stereo not drawn) [1.19],"Post-emergence action, rating, Ave",Avena (Ave) [1],1
same,"Post-emergence action, rating, Lol",Lolium (Lol) [2],1
same,"Post-emergence action, rating, Set",Setaria (Set) [3],1
CCc1cc(C)cc(CC)c1-c1c(O)n2n(c1=O)CC(OCCO)CC2 (stereo not drawn) [1.17],"Post-emergence action, rating, Ave",Avena (Ave) [1],1
same,"Post-emergence action, rating, Lol",Lolium (Lol) [2],1
same,"Post-emergence action, rating, Set",Setaria (Set) [3],2
